# Columns and labels:
# [1] = Stability tests (absorbance at 428 nm in different testing solutions); format: physicochemical
# Protocol: Stability was determined by re-suspending between 0.3 to 0.5 mg/mL of purified pigmented compound of Formula (IV) in different testing solutions according to Table 1, and measuring the absorbance at 428 nm every 24 hours for fifteen days. The test samples were kept in glass vials under constant incandescent light (except for the temperature stability test).
# Solubility = format: physicochemical; settings: in water and polar organic solvents such as methanol, and ethanol
# [2] = FRAP (ferric reducing antioxidant power) assay; settings: compared with ascorbic acid; data not shown
# [3] = Phosphomolybdenum antioxidant assay; settings: compared with ascorbic acid; data not shown
# [4] = Radical scavenging ability; settings: compared with ascorbic acid; data not shown
# B. cinera ICMP16621 [5] = assay: Agar diffusion assay, inhibition of mycelial growth; format: cell-based, Botrytis cinera; settings: HPLC purified; YPD agar, 25° C., 5 days; data not shown
# [6] = tested on: S. sclerotiorum ICMP13844; assay: as above; format: cell-based, Sclerotinia sclerotiorum; settings: HPLC purified; YPD agar, 25° C., 5 days; data not shown
# A. supraseptata SVB-F2 = assay: as above; format: cell-based, Apiognomonia supraseptata; settings: HPLC purified; YPD agar, 25° C., 5 days; data not shown
# Candida albicans SC5614 = assay: Agar diffusion assay, antimicrobial activity; format: cell-based; settings: data not shown
# Candida utilis 02/D00981 = assay: Agar diffusion assay, antimicrobial activity; format: cell-based; settings: data not shown
# [7] = tested on: Saccharomyces cerevisiae BM45; assay: Agar diffusion assay, antimicrobial activity; format: cell-based; settings: data not shown
# [8] = tested on: Staphylococcus epidermis SVB-B12; assay: Agar diffusion assay, antimicrobial activity; format: cell-based; settings: data not shown
# Escherichia coli SVB-B11 = assay: Agar diffusion assay, antimicrobial activity; format: cell-based; settings: data not shown
# [9] = tested on: Pseudomonas aeruginosa SVB-B10; format: cell-based; settings: agar diffusion; data not shown
# B. cinera ICMP16621 [10] = assay: Inhibition of spore germination; format: cell-based, Botrytis cinera
# [11] = tested on: S. sclerotiorum ICMP13844; assay: Inhibition of spore germination; format: cell-based, Sclerotinia sclerotiorum
# A. alternata ICMP1099-96 = assay: Inhibition of spore germination; format: cell-based, Alternaria alternata
# P. viticola ICMP5537 = assay: Inhibition of spore germination; format: cell-based, Phomopsis viticola
# R. solani ICMP11620 = format: cell-based, Rhizoctonia solani
# M. grisea ICMP14481 = format: cell-based, Magnaporthe grisea
# [12] = tested on: S. cepivorum ICMP10916-91; assay: Inhibition of spore germination; format: cell-based, Sclerotium cepivorum
# [13] = tested on: V. inaequalis ICMP4095-96; assay: Inhibition of spore germination; format: cell-based, Venturia inaequalis
# [14] = tested on: M. graminicola ICMP12504-95; format: cell-based, Mycosphaerella graminicola
# [15] = Stability tests (absorbance at 428 nm in different testing solutions); format: physicochemical; settings: after 10 days
# [16] = Stability to common acids: Acetic acid
# [17] = Stability to common acids: Malic acid
# [18] = Stability to common alkalis: NaHCO3 10% w/w
# [19] = Stability to microwave radiation: 5 min, domestic microwave (1000 W)
# [20] = Stability to presence of sugars: Sucrose 10% w/w
# [21] = Stability to temperature: 4° C. in methanol
# [22] = Stability to temperature: 4° C. in water
# [23] = Stability to temperature: 60° C. in methanol
# [24] = Stability to temperature: 60° C. in water
# [25] = Stability to temperature: 100° C. in water
# [26] = Stability to temperature: −20° C. in methanol
# [27] = Stability to temperature: −20° C. in water
# [28] = all three concentrations tested: 2.7, 1.3 and 0.7 mg·mL-1
structure (smiles),measurement,setting,value
"CCC(C)CC(C)/C=C(/C=C(C)/C=C/C=C/C=C/C=C/C=C/C=C/C1=C(C(=O)O)C2OOC(CO)C(O)C(O1)C2O)C(=O)O (single isomer, unassigned) [Compound 1, Epicoccaene]",Resistance to temperature and microwave radiation,[1],resistant
same,Initial absorbance (428 nm),[1]; [16],1.61
same,Initial absorbance (428 nm),[1]; Stability to common acids: Citric acid,1.53
same,Final absorbance (428 nm),"[1]; Stability to common acids: Citric acid, after 10 days",0.51
same,Initial absorbance (428 nm),[1]; Stability to common acids: Lactic acid,1.52
same,Final absorbance (428 nm),"[1]; Stability to common acids: Lactic acid, after 10 days",0.68
same,Initial absorbance (428 nm),[1]; [17],1.53
same,Initial absorbance (428 nm),[1]; Stability to common alkalis: Na2CO3 10% w/w,2.13
same,Final absorbance (428 nm),"[1]; Stability to common alkalis: Na2CO3 10% w/w, after 10 days",2.12
same,Initial absorbance (428 nm),[1]; [18],2.08
same,Initial absorbance (428 nm),[1]; Stability to common alkalis: NaOH 10% w/w,2.05
same,Final absorbance (428 nm),"[1]; Stability to common alkalis: NaOH 10% w/w, after 10 days",2.04
same,Initial absorbance (428 nm),[1]; Stability to light: In ethanol 5% v/v,2.04
same,Final absorbance (428 nm),"[1]; Stability to light: In ethanol 5% v/v, after 10 days",2.04
same,Initial absorbance (428 nm),[1]; Stability to light: In methanol,2.04
same,Final absorbance (428 nm),"[1]; Stability to light: In methanol, after 10 days",2.04
same,Initial absorbance (428 nm),[1]; Stability to light: In water,2.05
same,Final absorbance (428 nm),"[1]; Stability to light: In water, after 10 days",1.82
same,Final absorbance (428 nm),[1]; [19],2.04
same,Initial absorbance (428 nm),[1]; [19],2.05
same,Initial absorbance (428 nm),[1]; Stability to presence of sugars: Dextrose 10% w/w,2.08
same,Final absorbance (428 nm),"[1]; Stability to presence of sugars: Dextrose 10% w/w, after 10 days",2.08
same,Initial absorbance (428 nm),[1]; Stability to presence of sugars: Fructose 10% w/w,2.02
same,Final absorbance (428 nm),"[1]; Stability to presence of sugars: Fructose 10% w/w, after 10 days",2.03
same,Initial absorbance (428 nm),[1]; [20],2.08
same,Final absorbance (428 nm),[1]; [21],2.03
same,Initial absorbance (428 nm),[1]; [21],2.05
same,Final absorbance (428 nm),[1]; [22],2.06
same,Initial absorbance (428 nm),[1]; [22],2.08
same,Final absorbance (428 nm),[1]; [23],2.04
same,Initial absorbance (428 nm),[1]; [23],2.05
same,Final absorbance (428 nm),[1]; [24],2.06
same,Initial absorbance (428 nm),[1]; [24],2.08
same,Final absorbance (428 nm),[1]; [25],2.07
same,Initial absorbance (428 nm),[1]; [25],2.08
same,Final absorbance (428 nm),[1]; [26],2.06
same,Initial absorbance (428 nm),[1]; [26],2.05
same,Final absorbance (428 nm),[1]; [27],2.07
same,Initial absorbance (428 nm),[1]; [27],2.08
same,Stability under acidic conditions,"[1]; acidic conditions, colour changes from bright yellow to pale orange",unstable
same,Light sensitivity,[1]; dissolved in water at neutral pH,moderate light sensitivity
same,Resistance to light,"[1]; in water at pH 8.0 or higher, in methanol or in sugar solutions (10% w/w)",resistance to light increased
same,Degradation in solution of organic acids,[1]; organic acids (10% w/w),pronounced degradation
same,Final absorbance (428 nm),"[1]; pH stability, pH 3, after 10 days, constant incandescent light",1.45
same,Initial absorbance (428 nm),"[1]; pH stability, pH 3, constant incandescent light",1.46
same,Final absorbance (428 nm),"[1]; pH stability, pH 5, after 10 days, constant incandescent light",1.67
same,Initial absorbance (428 nm),"[1]; pH stability, pH 5, constant incandescent light",1.67
same,Final absorbance (428 nm),"[1]; pH stability, pH 7, after 10 days, constant incandescent light",2.05
same,Initial absorbance (428 nm),"[1]; pH stability, pH 7, constant incandescent light",2.05
same,Final absorbance (428 nm),"[1]; pH stability, pH 8, after 10 days, constant incandescent light",2.08
same,Initial absorbance (428 nm),"[1]; pH stability, pH 8, constant incandescent light",2.09
same,Final absorbance (428 nm),"[1]; pH stability, pH 10, after 10 days, constant incandescent light",2.09
same,Initial absorbance (428 nm),"[1]; pH stability, pH 10, constant incandescent light",2.09
same,Solubility,Solubility,readily soluble
same,Antioxidant power by FRAP,[2],comparable to those of ascorbic acid
same,Antioxidant power by phosphomolybdenum assay,[3],comparable to those of ascorbic acid
same,Radical scavenging ability,[4],comparable to those of ascorbic acid
same,Activity against mycelial growth (zone of inhibition),B. cinera ICMP16621 [5],strong activity
same,Activity against mycelial growth (zone of inhibition),[6],strong activity
same,Activity against mycelial growth (zone of inhibition),A. supraseptata SVB-F2,strong activity
same,Antimicrobial activity,Candida albicans SC5614,No antimicrobial activity
same,Antimicrobial activity,Candida utilis 02/D00981,No antimicrobial activity
same,Antimicrobial activity,[7],No antimicrobial activity
same,Antimicrobial activity,[8],No antimicrobial activity
same,Antimicrobial activity,Escherichia coli SVB-B11,No antimicrobial activity
same,Antimicrobial activity,[9],No antimicrobial activity
same,Inhibition of spore germination,B. cinera ICMP16621 [10]; [28],completely inhibit
same,Inhibition of spore germination,"B. cinera ICMP16621 [10]; incubation in rich culture medium for 10 days, data not shown",completely inhibit
same,minimal inhibition dose (MID),B. cinera ICMP16621 [10]; spore germination,below 0.7 mg/mL
same,Inhibition of spore germination,[11]; [28],completely inhibit
same,minimal inhibition dose (MID),[11]; spore germination,below 0.7 mg/mL
same,Inhibition of spore germination,A. alternata ICMP1099-96; [28],completely inhibit
same,minimal inhibition dose (MID),A. alternata ICMP1099-96; spore germination,below 0.7 mg/mL
same,Inhibition of spore germination,P. viticola ICMP5537; [28],completely inhibit
same,minimal inhibition dose (MID),P. viticola ICMP5537; spore germination,below 0.7 mg/mL
same,minimal inhibition dose (MID),R. solani ICMP11620,below 0.7 mg/mL
same,Inhibition of spore germination,R. solani ICMP11620; [28],completely inhibit
same,Inhibition of spore germination,M. grisea ICMP14481; [28],completely inhibit
same,minimal inhibition dose (MID),M. grisea ICMP14481; spore germination,below 0.7 mg/mL
same,Inhibition of spore germination,[12]; [28],completely inhibit
same,minimal inhibition dose (MID),[12]; spore germination,below 0.7 mg/mL
same,Inhibition of spore germination,[13]; [28],completely inhibit
same,minimal inhibition dose (MID),[13]; spore germination,below 0.7 mg/mL
same,Inhibition of spore germination,[14],resistant
same,Final absorbance (428 nm),[15]; [16],0.66
same,Final absorbance (428 nm),[15]; [17],0.38
same,Final absorbance (428 nm),[15]; [18],2.08
same,Final absorbance (428 nm),[15]; [20],2.07

# From US10477865B2, “Fungicidal compounds and methods of their use” (Auckland UniServices Limited, priority 2009, dated 2019)
